Results as given in PMC6838683, “Discovery of Human Signaling Systems: Pairing Peptides to G Protein-Coupled Receptors” (Cell, 2019).
Residues, ends and D or L forms follow the SMILES beside them. No end group written: not given here.

T1: GPR139 (Homo sapiens, UniProt Q6DWJ6)
T1 construct: hIL-2Ra signal peptide (N); expressed in transfected cells
T1 sequence (Q6DWJ6 2-353 limits assumed): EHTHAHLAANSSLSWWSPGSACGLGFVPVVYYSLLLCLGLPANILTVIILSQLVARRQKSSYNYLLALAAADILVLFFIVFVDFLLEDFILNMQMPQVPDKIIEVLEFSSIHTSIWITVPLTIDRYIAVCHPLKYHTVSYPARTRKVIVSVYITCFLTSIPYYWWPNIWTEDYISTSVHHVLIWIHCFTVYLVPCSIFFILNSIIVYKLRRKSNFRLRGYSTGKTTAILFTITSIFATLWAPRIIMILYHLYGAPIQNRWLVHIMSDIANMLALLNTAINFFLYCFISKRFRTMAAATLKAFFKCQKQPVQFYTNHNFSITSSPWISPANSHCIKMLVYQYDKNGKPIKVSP

T2: GPR1 (Homo sapiens, UniProt P46091)
T2 sequence (P46091 1-355): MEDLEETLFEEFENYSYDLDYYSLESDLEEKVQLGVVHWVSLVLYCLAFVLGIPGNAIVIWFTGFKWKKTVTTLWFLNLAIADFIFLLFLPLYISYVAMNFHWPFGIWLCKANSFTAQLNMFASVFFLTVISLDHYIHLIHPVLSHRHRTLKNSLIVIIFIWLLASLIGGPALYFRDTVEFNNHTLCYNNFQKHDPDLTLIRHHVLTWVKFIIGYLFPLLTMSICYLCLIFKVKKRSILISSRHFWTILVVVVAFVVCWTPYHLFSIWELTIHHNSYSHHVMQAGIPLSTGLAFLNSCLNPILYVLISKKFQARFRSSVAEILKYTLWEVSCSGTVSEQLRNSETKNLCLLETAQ

T3: bombesin receptor 3 (human) (UniProt P32247)
T3 sequence: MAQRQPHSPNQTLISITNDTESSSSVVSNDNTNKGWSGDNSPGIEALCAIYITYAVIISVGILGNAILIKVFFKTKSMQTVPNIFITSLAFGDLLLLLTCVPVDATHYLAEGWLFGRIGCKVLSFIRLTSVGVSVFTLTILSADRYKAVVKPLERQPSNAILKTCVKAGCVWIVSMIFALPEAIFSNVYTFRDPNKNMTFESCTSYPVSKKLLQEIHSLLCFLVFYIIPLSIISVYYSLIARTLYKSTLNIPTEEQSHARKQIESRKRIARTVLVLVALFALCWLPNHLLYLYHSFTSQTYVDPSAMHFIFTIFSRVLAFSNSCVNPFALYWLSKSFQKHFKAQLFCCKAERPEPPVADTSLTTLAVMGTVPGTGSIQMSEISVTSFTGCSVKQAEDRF

B1: neuromedin B (peptide)
peptide: GNLWATGHFM

How the values were obtained:
[1] = target: T1, GPR139; assay: Repeat of proposed literature pairing (mass redistribution and/or internalization); assay type: cell-based; conditions: GPR139; mean, SEM and n; read-out: pEC50, DMR (peak) (converted)
Description: DMR assays provide a single integrated readout of ligand-dependent cellular response, utilizing an optical biosensor in specialized microplates to detect wavelength shifts of reflected light as it passes through the biosensor and the lower portion of the cell (∼150-200 nm). As a signal pathway agnostic approach, DMR assays are well-suited to the study of GPCRs ([Fang et al., 2008], [Schröder et al., 2011]). The mass redistribution response (Δ picometer (pm)) likely reflects a number of intracellular events, including cytoskeletal rearrangement, protein trafficking and receptor internalization. Orphan receptor-expressing cells were gently washed twice with assay buffer (HBSS with 1 mM CaCl2, 1 mM MgCl2, 20 mM HEPES, 0.01% pluronic F-68, pH 7.4) containing 0.1% DMSO and cells were equilibrated for 90 min at 22°C in the EPIC Benchtop (BT) System (Corning) to establish a stable DMR signal. After 3-5 min baseline recordings, peptides (10 μM) were added in duplicate wells using an electronic 384-channel Viaflo pipette (Integra Biosciences, Switzerland) and DMR responses were measured for 60 min at 22°C. 100 nM norepinephrine was included as an internal assay control to assess the cellular DMR response via endogenously-expressed adrenoceptors in the TREx 293 cells. Real-time data were processed using the BT to column converter MS-Excel macro (Corning) and analyzed in GraphPad Prism 7.0. DMR recordings in peptide screening experiments were buffer and solvent corrected and the area under the curve (AUC) was quantified. For subsequent validation experiments, peptides were diluted in assay buffer containing 0.1% DMSO and DMR assays were performed as above. […] Data represent mean ± standard error of the mean (SEM) from at least 3 biologically independent experiments.
A TR-FRET real-time internalization assay was used to examine peptide-dependent changes in orphan receptor localization as described previously ([Foster and Bräuner-Osborne, 2018]). Surface-expressed SNAP-tagged receptors were labeled with a cell-impermeable luminescent terbium cryptate (100 nM SNAP Lumi4-Tb; Cisbio, France) for 1 hr at 37°C. Cells were washed to remove excess terbium and incubated with fluorescein-O-acetic acid (100 μM; Sigma Aldrich) for 5 min at 37°C. Peptides were added as for DMR assays, and internalization responses were recorded for 60 min at 37°C using an EnVision 2104 Multimode plate reader (PerkinElmer). 100 nM GLP-1 was used as a positive control for SNAP-GLP1R internalization. Real-time internalization responses were calculated based on TR-FRET (excitation 340 nm; emission 520 nm and 615 nm), and were expressed as the ratio between donor (terbium) and acceptor (fluorescein) emission. For peptide screening analysis (both DMR and internalization assays), we calculated the area under the curve from the real-time traces. […] Validation experiments for receptor internalization were performed as above. Internalization data was processed in MS-Excel and area under the curve was used to generate concentration-response curves using GraphPad Prism 7.0. Data represent mean ± standard error of the mean (SEM) from at least 3 biologically independent experiments.

[2] = target: T1, GPR139; assay: IP1 accumulation; assay type: cell-based; conditions: mean, SEM and n, read-out: pEC50, IP1 (converted)
Description: Supplement mmc7.xlsx, sheet "Peptide validation data" | column: Emax; pEC50

[3] = target: T2, GPR1; assay: β-arrestin recruitment (PathHunter); assay type: cell-based; conditions: for Emax, PathHunter (fold over basal) / pEC50, PathHunter (fold over basal): GPR1, mean, SEM and n
Method: PathHunter eXpress Assays (DiscoverX) were performed in 384-well format according to the manufacturer’s recommendations. GPR1 cells were incubated with peptides for 90 min and luminescence measured using an EnSpire 2300 Multimode plate reader (PerkinElmer).

[4] = target: T2, GPR1; assay: Real-time receptor internalization, validation; assay type: cell-based; design: host or cells: HTLA cells (HEK293-derived)
Description: (§1) Supplement mmc7.xlsx, sheet "Peptide validation data" | column: Comment

[5] = target: T2, GPR1; assay: β-arrestin recruitment (Tango), validation; assay type: cell-based; design: host or cells: HTLA cells (HEK293-derived)
[6] = target: T2, GPR1; assay: Dynamic mass redistribution (DMR), validation; assay type: cell-based; design: host or cells: HTLA cells (HEK293-derived)
Description: as §1

[7] = system: human GPCRs; design: method as in Guide to Pharmacology database; conditions: receptor gasr_human (CCKBR, P32239); max reported value; ref Guide to Pharmacology database; cited from earlier work
Description: Supplement mmc1.xlsx, sheet "HumanGPCRLigands" | column: pKi_value; pKd_value; pEC50_value; pIC50_value

[8] = system: NPFF2; assay: β-arrestin recruitment (Tango), known peptide receptors; assay type: cell-based, human; conditions: endogenous ligand(s) included in peptide library
Description: Supplement mmc6.xlsx, sheet "Peptide GPCR controls" | column: Confirmed?

[9] = target: T3, bombesin receptor 3 (human)

| Molecule | Emax, PathHunter (fold over basal) [3] [fold over basal] | pEC50, PathHunter (fold over basal) [3] | Comment on response, Internalization (AUC); Emax and pEC50 n.d. [4] | Emax, Tango (fold over basal) ([5]; GPR1, mean, SEM and n) | Comment on response, DMR (AUC); Emax and pEC50 n.d. [6] | also measured |
| --- | --- | --- | --- | --- | --- | --- |
| CSCC[C@H](NC(=O)[C@H](CO)NC(=O)[C@H](Cc1ccc(O)cc1)NC(=O)[C@@H](N)CO)C(=O)N[C@@H](CCC(=O)O)C(=O)N[C@@H](Cc1cnc[nH]1)C(=O)N[C@@H](Cc1ccccc1)C(=O)N[C@@H](CCCNC(=N)N)C(=O)N[C@@H](Cc1c[nH]c2ccccc12)C(=O)NCC(=O)N[C@@H](CCCCN)C(=O)N1CCC[C@H]1C(=O)N[C@H](C(=O)NCC(=O)N[C@@H](CCCCN)C(=O)N[C@@H](CCCCN)C(=O)N[C@@H](CCCNC(=N)N)C(=O)N[C@@H](CCCNC(=N)N)C(=O)N1CCC[C@H]1C(=O)N[C@H](C(=O)N[C@@H](CCCCN)C(=O)N[C@H](C(=O)N[C@@H](Cc1ccc(O)cc1)C(=O)N1CCC[C@H]1C(=O)N[C@@H](CC(N)=O)C(=O)NCC(=O)N[C@@H](C)C(=O)N[C@@H](CCC(=O)O)C(=O)N[C@@H](CC(=O)O)C(=O)N[C@@H](CCC(=O)O)C(=O)N[C@@H](CO)C(=O)N[C@@H](C)C(=O)N[C@@H](CCC(=O)O)C(=O)N[C@@H](C)C(=O)N[C@@H](Cc1ccccc1)C(=O)N1CCC[C@H]1C(=O)N[C@@H](CC(C)C)C(=O)N[C@@H](CCC(=O)O)C(=O)N[C@@H](Cc1ccccc1)C(=O)O)C(C)C)C(C)C)C(C)C [Corticotropin, ACTH] (H-SYSMEHFRWGKPVGKKRRPVKVYPNGAEDESAEAFPLEF-OH) | – | – | – | – | – | EC50 [1]: 0.0661 µM; EC50 [2]: 1.15 µM |
| CSCC[C@H](NC(=O)[C@H](Cc1c[nH]c2ccccc12)NC(=O)CNC(=O)[C@H](Cc1ccc(O)cc1)NC(=O)[C@H](C)NC(=O)[C@H](CCC(=O)O)NC(=O)[C@H](CCC(=O)O)NC(=O)[C@H](CCC(=O)O)NC(=O)[C@H](CCC(=O)O)NC(=O)[C@H](CCC(=O)O)NC(=O)[C@H](CC(C)C)NC(=O)[C@H](Cc1c[nH]c2ccccc12)NC(=O)[C@@H]1CCCN1C(=O)CNC(=O)[C@@H](N)CCC(N)=O)C(=O)N[C@@H](CC(=O)O)C(=O)N[C@@H](Cc1ccccc1)C(N)=O [Peptide 118, Gastrin-17, reference compound] | 3.5 | 5.24 | No response; known CCK receptor agonist | 9.8 | No response; known CCK receptor agonist | EC50 ([3]; PathHunter eXpress GPR1 cells, 90 min, luminescence, mean ± SEM of 3-4 independent experiments in triplicate, read-out: pEC50, β-arrestin recruitment (PathHunter), GPR1 (converted)): 6.31 µM; EC50 ([5]; HTLA cells transiently transfected, overnight stimulation, luciferase, mean ± SEM of 3-4 independent experiments in triplicate, read-out: pEC50, β-arrestin recruitment (Tango), GPR1 (converted)): > 10 µM; EC50 ([5]; pEC50, Tango (fold over basal), GPR1, mean, SEM and n): 102 µM |
| KAPSGRMSIVKNLQNLDPSHRISDRDYMGWMDF [Peptide 194, cholecystokinin (CCK-33), reference compound] | 5.7 | 8.01 | No response; Known CCK receptor agonist | 15.0 | No response; Known CCK receptor agonist | pIC50_value [7]: 8.8; pEC50, Tango (fold over basal) ([5]; GPR1, mean, SEM and n): 5.28 |
| KRSFSGFGSPLDRLSAGSVDHK [Processed Osteocrin_(-2-19)] | 8.0 | 6.18 | No response | 14.4 | No response | pEC50, Tango (fold over basal) ([5]; GPR1, mean, SEM and n): 5.60 |
| Neuropeptide RFRP-1 (MPHSFANLPLRF-NH2) | – | – | – | – | – | Confirmed? (confirmation of b-arrestin recruitment) [8]: No |
| Neuropeptide SF (SQAFLFQPQRF-NH2) | – | – | – | – | – | Confirmed? (confirmation of b-arrestin recruitment) [8]: No |
| B1 | – | – | – | – | – | pEC50 of neuromedin B responses in G (q/11) signaling assays (IP1 generation) [9]: 6.39 pEC50; pEC50 of neuromedin B responses in mass redistribution [9]: 7.43 pEC50 |
